In ChEMBL document CHEMBL1201862, “PubChem BioAssay data set” (2004):
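Briefly, cells in 96-well plates were exposed to five compound concentrations for 48 h, and endpoints were estimated by linear interpolation. At the GI50, growth is halved.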 Activity calls are given as the source filed them. Rule as the data show it: active = GI50 up to about 1.1 µM and inactive = higher.

Columns and labels:
Experiment in all cases: NCI anticancer screen, dose series, 48 h
OVCAR-8 = system: OVCAR-8
SF-268 = system: SF-268
RPMI-8226 = system: RPMI-8226
786-0 = system: 786-0
A498 = system: A498
U-251 = system: U-251
TK-10 = system: TK-10
IGROV-1 = system: IGROV-1
NCI-H23 = system: NCI-H23
LOX IMVI = system: LOX IMVI
M14 = system: M14
HL-60 = system: HL-60
SW-620 = system: SW-620
SF-295 = system: SF-295
K562 = system: K562
SF-539 = system: SF-539

Measured: GI50

CCOc1ccccc1NC(=O)CCC(=O)OC
inactive: OVCAR-8 > 100 µM | SF-268 > 100 µM | RPMI-8226 > 48.3 µM | 786-0 > 100 µM | A498 > 100 µM | U-251 > 49.9 µM | TK-10 > 100 µM | IGROV-1 > 100 µM | NCI-H23 > 100 µM | LOX IMVI > 31.6 µM | M14 > 100 µM | HL-60 > 51.8 µM | SW-620 > 42.1 µM | SF-295 > 100 µM | K562 > 56.2 µM

Cn1cc(NC(=O)c2cc(NC(=O)CCCCCCCCCC(=O)Nc3cc(C(=O)Nc4cc(C(=O)NCCC(=N)N)n(C)c4)n(C)c3)cn2C)cc1C(=O)NCCC(=N)N
inactive: OVCAR-8 25.7 µM | SF-268 21.8 µM | RPMI-8226 8.26 µM | 786-0 29.4 µM | U-251 27.4 µM | TK-10 22.7 µM | IGROV-1 41.5 µM | NCI-H23 34.8 µM | LOX IMVI 31 µM | M14 23.1 µM | SW-620 32 µM | SF-539 37.9 µM | SF-295 22.1 µM | K562 14.3 µM

Nc1nc(Cl)cc(NCCCCCCNc2cc(Cl)nc(N)n2)n1
inactive: OVCAR-8 > 100 µM | RPMI-8226 45.3 µM | 786-0 > 100 µM | U-251 > 100 µM | TK-10 > 100 µM | IGROV-1 > 100 µM | NCI-H23 54.5 µM | LOX IMVI 20.8 µM | M14 > 100 µM | HL-60 15.2 µM | SW-620 > 100 µM | SF-539 > 100 µM | SF-295 28.1 µM | K562 28.6 µM

CCCNCCCC(NC(C)=O)C(=O)NCc1ccccc1 (configuration not stated)
inactive: OVCAR-8 > 100 µM | SF-268 > 100 µM | RPMI-8226 > 100 µM | 786-0 > 100 µM | A498 > 100 µM | U-251 > 100 µM | TK-10 > 100 µM | IGROV-1 > 100 µM | NCI-H23 > 100 µM | LOX IMVI > 100 µM | M14 > 100 µM | SW-620 > 100 µM | SF-539 > 100 µM | SF-295 > 100 µM | K562 > 100 µM

Cc1cc2c(c3c1c1ccccc1n3C)C(=O)c1ccccc1C2=O
inactive: OVCAR-8 > 100 µM | SF-268 > 100 µM | RPMI-8226 > 100 µM | 786-0 > 100 µM | U-251 > 100 µM | TK-10 > 100 µM | IGROV-1 45.7 µM | NCI-H23 48.5 µM | LOX IMVI > 100 µM | M14 > 100 µM | HL-60 39.3 µM | SW-620 > 100 µM | SF-539 > 100 µM | SF-295 > 100 µM | K562 48 µM

Cc1ccccc1CN1CC=c2ccccc2=N1
inactive: OVCAR-8 > 100 µM | SF-268 > 100 µM | RPMI-8226 > 100 µM | 786-0 > 100 µM | A498 > 100 µM | U-251 > 100 µM | TK-10 > 100 µM | IGROV-1 > 100 µM | NCI-H23 > 100 µM | LOX IMVI > 100 µM | M14 > 100 µM | SW-620 > 100 µM | SF-539 > 100 µM | SF-295 > 100 µM | K562 > 100 µM

CC(C)(C)N/N=N/c1cn(C2OC(CO)C(O)C2O)c(=O)[nH]c1=O (configuration not stated)
inactive: OVCAR-8 > 100 µM | SF-268 > 100 µM | RPMI-8226 20 µM | 786-0 > 100 µM | A498 > 100 µM | TK-10 > 100 µM | IGROV-1 > 100 µM | NCI-H23 > 100 µM | LOX IMVI 41.7 µM | M14 > 100 µM | HL-60 50.9 µM | SW-620 17.6 µM | SF-295 > 100 µM | K562 40.7 µM
